We go through one compound from patent US20110256240A1, “Combination Therapy” (priority 2004, published 2011).

For the assay, the system named is range of tumour models. Put plainly: anti-tumour activity in a range of models. The class given is in vivo. The following applies: once-daily oral administration.

For `COc1cc2c(Oc3ccc4[nH]c(C)cc4c3F)ncnc2cc1OCCCN1CCCC1` [AZD2171, 4-(4-fluoro-2-methyl-1H-indol-5-yloxy)-6-methoxy-7-(3-(pyrrolidin-1-yl)propoxy)quinazoline], the “anti-tumour activity in a range of models” value is given as “broad-spectrum anti-tumour activity”.
